Measured values from patent US8105745B2, “Radiation crosslinker” (National University of Singapore, priority 2005, dated 2012).

Key:
solubility in solvents = assay type: physicochemical
[1] = stability of the azide in acidified aqueous MeOD (19F NMR, FTIR); assay type: physicochemical
Procedure: The azide compounds according to the present invention are stable even in strongly acidic aqueous environment. […] Its ^19F NMR spectrum is acquired within 5 min and again after 21 days. […] This was further confirmed through FTIR analysis of the solid recovered by evaporation after the ^19F NMR experiment. No change in the azide stretching intensity (νasN3, 2129 cm^−1) normalized against benzene (νring, 1546 cm^−1) was observed.

With `C[N+](C)(CCCNC(=O)c1c(F)c(F)c(N=[N+]=[N-])c(F)c1F)CCCNC(=O)c1c(F)c(F)c(N=[N+]=[N-])c(F)c1F` [V] the “solubility in H2O” value (solubility in solvents) was “soluble in H2O”.

In the case of “N,N-dimethyl-N,N-dipropylene bis(4-azido-2,3,5,6-tetrafluorobenzamide) ammonium iodide”, the “change of 19F NMR spectrum” value ([1]; 16 mg mL^-1 in acidified deuterated MeOD containing 2.4 M HCl and 6.5 M H2O, within 5 min vs after 21 days) was “No observable change” and the “change in azide stretching intensity (FTIR, 2129 cm^-1) normalized against benzene ring band” value ([1]; solid recovered by evaporation after the 19F NMR experiment (21 days in acidic aqueous MeOD)) was “No change”.
